Read-outs that look alike come from different tables or passages of the source.
How the values were obtained:
[1] = test system: H1975 cells; assay: Growth inhibition, sulforhodamine B assay, H1975; assay type: cell-based; settings: for anticancer activity / effect on cell proliferation: H1975, result in words
Source text: (§1) Two NSCLC cell lines carrying specific EGFR mutations (HCC827: EGFR sensitizing E746_A750 deletion; H1975: resistance-causing EGFR T790M secondary mutation) were purchased from American Type Culture Collection (ATCC; Manassas, VA, USA). A normal human lung epithelial cell line BEAS-2B was also obtained from ATCC to investigate the potential toxic effect of the tested drugs. HCC827, H1975, and BEAS-2B cells were maintained in RPMI1640 medium supplemented with 10% fetal bovine serum, 100-U/mL streptomycin sulfate, and 100-U/mL penicillin G sulfate, and incubated at 37°C in 5% CO2.
(§2) Growth inhibitory effects of various drug candidates on the cell lines were evaluated by the sulforhodamine B assay ([32]). Cells were seeded into 96-well tissue culture plates in 100 µL at a plating density of 3,000–5,000 cells/well, and allowed to incubate overnight. The cells were then treated with various drug candidates at a range of concentrations and allowed to incubate at 37°C in 5% CO2 for 72 h. Each drug concentration was tested in quadruplicate and controls were tested in replicates of eight.

[2] = test system: HCC827 cells; assay: Growth inhibition, sulforhodamine B assay, HCC827; assay type: cell-based; settings: for anticancer activity / effect on cell proliferation: HCC827, result in words; for IC50: HCC827 (EGFR E746_A750 deletion), 72 h
Source text: as §1, §2

[3] = biological target: EGFR wild type (Homo sapiens, UniProt P00533); assay: Cell-free kinase inhibition assay (ADP-Glo), EGFR wild type; assay type: biochemical; settings: recombinant EGFR wild type, poly-EY substrate
Description: (§3) Inhibition of tyrosine kinase signaling by the drug candidates identified was examined in a cell-free system by assessing the phosphorylation of a poly-EY (4:1 Glu, Tyr) peptide substrate (for EGFR) with recombinant kinases EGFR^wt, EGFR^L858R, or EGFR^L858R+T790M as described previously ([34]). Inhibition of the recombinant kinases by the drug candidates was evaluated by using the ADP-Glo Kinase assay kit according to the manufacturer’s instruction (Promega, Madison, WI, USA). […] Also, 5 µL of ADP-Glo reagent was then added and incubation continued at room temperature for another 40 min. Afterward, 10 µL of kinase detection reagent was added and the mixture was allowed to incubate at room temperature for 30 min, before the measurement of luminescence by GloMax 20/20 Luminometer (Promega).

[4] = test system: EGFR wild type; assay: as above; assay type: biochemical; settings: wild type IC50 versus L858R IC50
Description: as §3

[5] = biological target: EGFR L858R/T790M (Homo sapiens, UniProt P00533, L858R/T790M); assay: Cell-free kinase inhibition assay (ADP-Glo), EGFR L858R/T790M; assay type: biochemical; settings: for Fold difference from L858R value: L858R/T790M IC50 versus L858R IC50; for IC50: recombinant EGFR L858R/T790M, poly-EY substrate
Description: as §3

[6] = test system: BEAS-2B cells; assay: Cytotoxicity in normal lung epithelial cell line BEAS-2B; assay type: cell-based, human; settings: for reduced cell viability: BEAS-2B
Source text: as §1, §2

[7] = test system: H1975 cells; assay: Annexin V apoptosis assay; assay type: cell-based; settings: for induction of apoptosis: H1975, 48 h, result in words; for proportion of apoptotic cells: 48 h
Description: Cells were grown on a 60-mm tissue culture dish at a density of about 5.0 × 10^5 cells/well. […] At the end of the treatment, both floating and attached cells were collected and washed twice with ice-cold phosphate buffer solution. The extent of apoptosis was determined by using the APC annexin-V apoptosis kit (BD Bioscience, San Jose, CA, USA) according to the manufacturer’s instructions. Cells positive for both annexin V and 7-AAD were considered apoptotic.

[8] = test system: EGFR phosphorylation; assay: Western blot, EGFR autophosphorylation in HCC827 and H1975 cells; assay type: cell-based; settings: H1975 compared with HCC827, 4 h, result in words
Description: (§4) Non-small cell lung cancer (HCC827, H1975) cell lines were treated with the tested drug candidates for the designated time (4 h). The cells were then harvested for Western blot analysis in lysis buffer (0.05-M HEPES pH 7.4, 0.15-M NaCl, 2-mM EDTA, 10% v/v glycerol, 1% v/v Triton X-100) supplemented with protease and phosphatase inhibitor cocktail (Thermo Scientific). Whole cell lysates were separated by SDS-PAGE and subjected to immunoblot analysis with the respective antibodies [total EGFR, phosphor-EGFR (Y845), phosphor-ERK1/2 (Thr177/Thr160), ERK1/2, phosphor-Akt, total Akt, and GAPDH (Santa Cruz Biotechnology, Santa Cruz, CA, USA)]. Primary antibody incubation was carried out at 4°C overnight in 5% bovine serum albumin/phosphate-buffered saline-Tween 20. Afterward, the membranes were incubated with HRP-conjugated donkey anti-mouse/anti-rabbit secondary antibody at room temperature for 1 h, and developed using the WesternBright Quantum chemiluminescence detection system (Advansta Corporation, Menlo Park, CA, USA). Anti-GAPDH antibody was used as the loading control (Santa Cruz Biotech, Santa Cruz, CA, USA). Digital chemiluminescence images were captured and quantified by using the FluorChem Q Imaging System (Alpha Innotech Corporation, Santa Clara, CA, USA).

[9] = biological target: EGFR L858R (Homo sapiens, UniProt P00533, L858R); assay: Cell-free kinase inhibition assay (ADP-Glo), EGFR L858R; assay type: biochemical; settings: recombinant EGFR L858R, poly-EY substrate
Description: as §3

[10] = test system: phosphorylation of EGFR, Akt, and ERK; assay: Western blot, drug combination, phosphorylation of EGFR, Akt and ERK in H1975 cells; assay type: cell-based; settings: H1975, gefitinib 10 µM, indacaterol 10 µM, alone or concomitant, 4 h, result in words
[11] = test system: phosphorylation of Akt and ERK; assay: Western blot, phosphorylation of Akt and ERK in HCC827 and H1975 cells; assay type: cell-based; settings: H1975 compared with HCC827, 4 h, result in words
Description: as §4

[12] = test system: PUMA; assay: Western blot, induction of PUMA in HCC827 and H1975 cells; assay type: cell-based; settings: H1975 compared with HCC827, result in words
[13] = test system: L858R/T790M EGFR-bearing NSCLC cells; settings: L858R/T790M EGFR-bearing NSCLC cells ref 15; cited from earlier work
[14] = H1975 (EGFR L858R/T790M), 72 h, read-out: IC50
[15] = highest concentration tested 100 µM

Chain of EGFR L858R (P00533 25-1210 L858R): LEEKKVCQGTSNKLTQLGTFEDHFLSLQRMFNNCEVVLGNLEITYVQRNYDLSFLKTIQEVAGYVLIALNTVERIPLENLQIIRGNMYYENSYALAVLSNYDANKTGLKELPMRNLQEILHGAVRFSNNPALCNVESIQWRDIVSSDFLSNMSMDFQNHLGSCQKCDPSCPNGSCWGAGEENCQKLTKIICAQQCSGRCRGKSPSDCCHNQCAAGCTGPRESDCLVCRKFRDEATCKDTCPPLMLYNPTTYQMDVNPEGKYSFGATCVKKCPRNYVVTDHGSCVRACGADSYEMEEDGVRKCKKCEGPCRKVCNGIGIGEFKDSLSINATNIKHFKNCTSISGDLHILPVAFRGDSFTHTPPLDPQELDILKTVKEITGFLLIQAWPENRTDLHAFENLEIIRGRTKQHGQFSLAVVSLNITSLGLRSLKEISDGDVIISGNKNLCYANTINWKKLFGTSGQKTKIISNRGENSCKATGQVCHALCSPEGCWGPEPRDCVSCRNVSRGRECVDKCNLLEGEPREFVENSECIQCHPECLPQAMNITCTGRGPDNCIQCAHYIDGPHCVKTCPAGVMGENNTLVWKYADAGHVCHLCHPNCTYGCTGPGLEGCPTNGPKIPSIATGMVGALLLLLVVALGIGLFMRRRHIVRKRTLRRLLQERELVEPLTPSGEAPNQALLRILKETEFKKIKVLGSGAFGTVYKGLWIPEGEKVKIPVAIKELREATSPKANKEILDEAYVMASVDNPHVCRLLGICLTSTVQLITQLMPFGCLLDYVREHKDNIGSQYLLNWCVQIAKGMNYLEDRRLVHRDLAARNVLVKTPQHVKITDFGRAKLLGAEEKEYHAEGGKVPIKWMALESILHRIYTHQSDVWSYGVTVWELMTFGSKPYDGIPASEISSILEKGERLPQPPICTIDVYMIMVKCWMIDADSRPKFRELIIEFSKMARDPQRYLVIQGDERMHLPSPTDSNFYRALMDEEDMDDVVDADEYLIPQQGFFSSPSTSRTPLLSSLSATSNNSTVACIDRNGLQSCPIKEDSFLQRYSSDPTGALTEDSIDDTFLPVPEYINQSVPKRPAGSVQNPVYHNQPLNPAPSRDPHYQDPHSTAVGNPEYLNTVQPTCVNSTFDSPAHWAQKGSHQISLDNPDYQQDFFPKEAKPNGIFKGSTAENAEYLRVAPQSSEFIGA
Chain of EGFR L858R/T790M (P00533 25-1210 T790M/L858R): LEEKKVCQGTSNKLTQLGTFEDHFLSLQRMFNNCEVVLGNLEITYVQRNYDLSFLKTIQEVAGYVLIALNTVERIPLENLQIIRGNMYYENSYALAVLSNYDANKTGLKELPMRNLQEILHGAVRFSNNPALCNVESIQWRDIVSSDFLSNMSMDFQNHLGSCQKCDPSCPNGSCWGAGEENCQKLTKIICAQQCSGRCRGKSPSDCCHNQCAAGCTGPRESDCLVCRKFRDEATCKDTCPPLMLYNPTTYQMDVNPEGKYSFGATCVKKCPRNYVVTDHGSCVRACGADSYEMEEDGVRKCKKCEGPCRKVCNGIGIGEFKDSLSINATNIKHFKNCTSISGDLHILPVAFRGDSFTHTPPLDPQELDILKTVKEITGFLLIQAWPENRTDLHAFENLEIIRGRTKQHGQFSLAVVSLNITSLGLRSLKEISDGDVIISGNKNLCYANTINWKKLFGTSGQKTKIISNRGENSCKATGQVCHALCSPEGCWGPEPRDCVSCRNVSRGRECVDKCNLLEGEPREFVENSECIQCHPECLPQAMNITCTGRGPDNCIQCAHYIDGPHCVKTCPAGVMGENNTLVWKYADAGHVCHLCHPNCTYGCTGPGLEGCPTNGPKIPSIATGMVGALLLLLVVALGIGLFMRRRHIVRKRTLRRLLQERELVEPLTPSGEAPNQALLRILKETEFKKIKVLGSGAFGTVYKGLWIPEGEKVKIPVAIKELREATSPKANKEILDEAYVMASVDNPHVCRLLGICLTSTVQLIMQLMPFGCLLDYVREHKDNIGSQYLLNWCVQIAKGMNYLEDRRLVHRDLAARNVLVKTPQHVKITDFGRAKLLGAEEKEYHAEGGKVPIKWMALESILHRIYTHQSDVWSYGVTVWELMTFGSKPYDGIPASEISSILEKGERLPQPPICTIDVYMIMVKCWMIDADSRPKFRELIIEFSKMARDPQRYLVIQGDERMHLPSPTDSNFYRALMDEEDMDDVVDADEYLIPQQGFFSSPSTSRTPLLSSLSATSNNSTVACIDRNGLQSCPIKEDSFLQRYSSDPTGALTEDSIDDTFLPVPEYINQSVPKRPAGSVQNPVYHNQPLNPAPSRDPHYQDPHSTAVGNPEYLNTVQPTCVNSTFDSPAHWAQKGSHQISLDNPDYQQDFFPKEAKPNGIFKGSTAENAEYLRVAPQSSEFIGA
Chain of EGFR wild type (Homo sapiens, UniProt P00533) (P00533 25-1210): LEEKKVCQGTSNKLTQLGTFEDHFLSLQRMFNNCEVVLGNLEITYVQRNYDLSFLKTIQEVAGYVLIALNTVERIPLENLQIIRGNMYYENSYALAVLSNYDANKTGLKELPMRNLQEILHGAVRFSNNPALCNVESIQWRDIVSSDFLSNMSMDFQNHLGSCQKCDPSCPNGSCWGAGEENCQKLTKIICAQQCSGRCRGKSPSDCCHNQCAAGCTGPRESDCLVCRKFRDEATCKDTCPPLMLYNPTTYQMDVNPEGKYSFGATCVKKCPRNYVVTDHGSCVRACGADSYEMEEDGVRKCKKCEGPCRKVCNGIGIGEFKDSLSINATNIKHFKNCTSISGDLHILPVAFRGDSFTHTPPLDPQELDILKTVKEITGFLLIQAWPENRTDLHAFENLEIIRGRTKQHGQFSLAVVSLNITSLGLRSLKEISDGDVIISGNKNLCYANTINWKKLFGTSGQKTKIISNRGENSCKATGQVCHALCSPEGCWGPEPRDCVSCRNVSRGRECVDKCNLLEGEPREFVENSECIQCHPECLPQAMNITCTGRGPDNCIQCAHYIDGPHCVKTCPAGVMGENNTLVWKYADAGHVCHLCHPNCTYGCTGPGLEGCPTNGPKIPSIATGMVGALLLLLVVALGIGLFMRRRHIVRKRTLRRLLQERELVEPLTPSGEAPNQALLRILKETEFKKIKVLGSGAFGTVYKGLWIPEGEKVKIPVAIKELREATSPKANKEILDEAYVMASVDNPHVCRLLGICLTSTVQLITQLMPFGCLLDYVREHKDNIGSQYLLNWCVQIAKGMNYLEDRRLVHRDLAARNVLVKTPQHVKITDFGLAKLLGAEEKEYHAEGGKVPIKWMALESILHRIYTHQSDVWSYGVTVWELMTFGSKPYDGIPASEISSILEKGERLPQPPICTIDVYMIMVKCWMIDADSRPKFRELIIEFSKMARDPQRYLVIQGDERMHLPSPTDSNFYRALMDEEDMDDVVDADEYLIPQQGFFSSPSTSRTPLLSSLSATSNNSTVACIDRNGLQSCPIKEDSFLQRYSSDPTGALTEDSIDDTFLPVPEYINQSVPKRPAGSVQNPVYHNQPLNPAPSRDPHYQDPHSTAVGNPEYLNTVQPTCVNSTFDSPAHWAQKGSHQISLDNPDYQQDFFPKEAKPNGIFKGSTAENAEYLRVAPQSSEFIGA

IC50 [3] [nM]	Fold difference from L858R value [5]	IC50 [5] [nM]	IC50 [9] [nM]	Structure (SMILES)	anticancer activity / effect on cell proliferation [1]	anticancer activity / effect on cell proliferation [2]	Fold difference from L858R value [4]	induction of apoptosis [7]	inhibition of EGFR phosphorylation [8]	also measured
–	–	–	–	O=C(c1ccc(F)cc1)C1CCN(CCn2c(=O)[nH]c3ccccc3c2=O)CC1 [Ketanserin]	negative	negative	–	–	–	–
186 ± 21.5	1.1	94 ± 11.2	83 ± 5.2	OCCN1CCN(CC/C=C2/c3ccccc3Sc3ccc(C(F)(F)F)cc32)CC1 [Cis-flupenthixol]	exhibit anticancer activity	exhibit anticancer activity	2.2	induce apoptosis in a concentration-dependent manner	similarly in both H1975 and HCC827 cells	reduced cell viability ([6]; highest concentration tested 20 µM): less than 20%
–	–	–	–	C#Cc1cccc(Nc2ncnc3cc(OCCOC)c(OCCOC)cc23)c1 [Erlotinib]	–	–	–	–	–	IC50 ([1]; Homo sapiens, NCI-H1975, 72 h): 8200 ± 2100 nM; IC50 ([6]; Homo sapiens, BEAS-2B normal lung epithelial cells): ~20000 nM
792 ± 43.2	0.4	103 ± 14	232 ± 36.5	CCc1cc2c(cc1CC)CC(NC[C@H](O)c1ccc(O)c3[nH]c(=O)ccc13)C2 [Indacaterol]	exhibit anticancer activity	exhibit anticancer activity	3.4	induce apoptosis in a concentration-dependent manner	more potently in H1975 than in HCC827 cells	inhibition of phosphorylation of EGFR, Akt, and ERK [10]: mildly; inhibition of phosphorylation of Akt and ERK [11]: more remarkably in H1975 than in HCC827; induction of PUMA [12]: more pronounced induction of PUMA in H1975 cells than in HCC827 cells; IC50 [1, 14]: ~14000 nM; IC50 ([1]; Homo sapiens, NCI-H1975, 72 h, H1975 (EGFR L858R/T790M), 72 h, read-out: IC50): 14300 ± 2200 nM; IC50 ([2]; Homo sapiens): 41500 ± 3900 nM; reduced cell viability [6, 15]: less than 20%; proportion of apoptotic cells ([7]; H1975, indacaterol alone 5 µM): 9.7 ± 1.8%
–	–	–	–	CCCc1nn(C)c2c(=O)[nH]c(-c3cc(S(=O)(=O)N4CCN(C)CC4)ccc3OCC)nc12 [Sildenafil]	negative	negative	–	–	–	–
–	–	–	–	C=CC(=O)Nc1cc(Nc2nccc(-c3cn(C)c4ccccc34)n2)c(OC)cc1N(C)CCN(C)C [osimertinib]	–	–	–	–	–	IC50 [13]: ~11 nM
–	–	–	–	COc1cc2ncnc(Nc3ccc(F)c(Cl)c3)c2cc1OCCCN1CCOCC1 [Gefitinib]	–	–	–	–	–	proportion of apoptotic cells ([7]; H1975, gefitinib alone 4 µM): 6.9 ± 1.2%
795 ± 49.6	0.7	261 ± 24.4	368 ± 29.6	Cc1ccc([C@@H]2O[C@H](CO)[C@@H](O)[C@H](O)[C@H]2O)cc1Cc1ccc(-c2ccc(F)cc2)s1 [Canagliflozin]	exhibit anticancer activity	exhibit anticancer activity	2.2	induce apoptosis in a concentration-dependent manner	more potently in H1975 than in HCC827 cells	inhibition of phosphorylation of Akt and ERK [11]: more remarkably in H1975 than in HCC827; induction of PUMA [12]: more pronounced induction of PUMA in H1975 cells than in HCC827 cells; IC50 [1, 14]: 25500 ± 3100 nM; IC50 [2]: 45400 ± 2900 nM; reduced cell viability [6, 15]: less than 20%

Reference: PMC5712561 (Frontiers in Oncology, 2017)
